The results in this text go back to US7632657B2, “Method of detecting meticillin-resistant microorganisms” (priority 2002, dated 2009).

Data set [1] relates to MRhet: (heterogeneous) meticillin-resistant strain. Description: Growth of S. aureus strains streaked on CHROMagar Staph aureus medium with antibiotic: heterogeneous meticillin-resistant strain. Format: cell-based, Staphylococcus aureus. Details: key: + = colony growth; − = no growth; * = microcolonies. The note with it: streaked dishes, 37° C. for 24 hours. The text has this: (§1) Study of the growth of meticillin-resistant S. aureus strains on CHROMagar Staph aureus medium (available from the company CHROMagar, 4, Place du 18 Juin 1940, 75006 Paris France): • AR4295 MetiS: meticillin-sensitive strain • AR4297 MetiR: (homogeneous) meticillin-resistant strain • MRhet: (heterogeneous) meticillin-resistant strain • Z252: meticillin-resistant strain, homogeneous, low level of resistance
(§2) Petri dishes are inoculated with bacterial cultures by streaking the dishes, in order to observe the growth of isolated bacteria, after incubation at 37° C. for 24 hours.
(§3) The bacteria that grow give purple colonies on the culture medium, confirming that the microorganisms are Staphylococcus aureus.

In data set [2] the test system is AR4295 MetiS: meticillin-sensitive strain. Description: Growth of S. aureus strains streaked on CHROMagar Staph aureus medium with antibiotic: meticillin-sensitive strain. The data set is classed as cell-based, Staphylococcus aureus. Details: key: + = colony growth; − = no growth; * = microcolonies. The following applies: streaked dishes, 37° C. for 24 hours.
From the text: as §1, §2, §3

Data set [3] in a line: Stability of the detection medium prepared with the antibiotic. The data set is classed as physicochemical. The following applies: added when the medium is at 48° C. As to the method: For example, a stability of at least 2 months has been observed for a medium in accordance with the invention prepared with cefoxitin at a concentration of 5 mg/l, added to the medium when the latter is at a temperature of 48° C. The stability of the medium in accordance with the invention has been brought to at least 5 months when said medium has been prepared with cefmetazole at a concentration of 2.5 mg/l, added to the medium when the latter is at a temperature of 48° C.
The expression “stability of the medium” is intended to denote the ability of the medium in accordance with the invention to allow the selective detection of meticillin-resistant microorganisms, in particular staphylococcus aureus, for a given period of time, with the same reliability throughout the period of time.

In data set [4] the test system is AR4297 MetiR: (homogeneous) meticillin-resistant strain. Nature of the data set: Growth of S. aureus strains streaked on CHROMagar Staph aureus medium with antibiotic: homogeneous meticillin-resistant strain. Format: cell-based, Staphylococcus aureus. Also on record: key: + = colony growth; − = no growth; * = microcolonies. The note with it: CHROMagar Staph aureus + Cefoxitin 5 mg/l; streaked dishes, 37° C. for 24 hours.
From the text: as §1, §2, §3

Data set [5] relates to Z252: meticillin-resistant strain, homogeneous, low level of resistance. Nature of the data set: Growth of S. aureus strains streaked on CHROMagar Staph aureus medium with antibiotic: low-level resistant strain. The data set is classed as cell-based, Staphylococcus aureus. Also on record: key: + = colony growth; − = no growth; * = microcolonies. The note with it: streaked dishes, 37° C. for 24 hours.
From the text: as §1, §2, §3

Data set [6] in a line: Conservation of antibiotic activity on heating. Format: physicochemical. The following applies: temperature of greater than 100° C.; resistance verified by the inventors at 121° C. As to the method: (its resistance having even been verified by the inventors at 121° C.).
Setting [7] is: CHROMagar Staph aureus + Cefoxitin 5 mg/l.
Setting [8] is: CHROMagar Staph aureus + oxacillin 6 mg/ml.

`CO[C@@]1(NC(=O)Cc2cccs2)C(=O)N2C(C(=O)O)=C(COC(N)=O)CS[C@@H]21` [Cefoxitin, cefoxitin]: the “colony growth, MRhet” value in data set [1] (setting [7]) is on record as “+”. Besides, the “colony growth, AR4295 MetiS” value in data set [2] (setting [7]) is “−”. In data set [3] (medium prepared with cefoxitin at 5 mg/l), the “stability of the medium” value is on record as “at least 2 months”. In addition, the “colony growth, AR4297 MetiR” value in data set [4] is “+”. Also, the “colony growth, Z252” value in data set [5] (setting [7]) is on record as “+”.
For the compound `CO[C@@]1(NC(=O)CSCC#N)C(=O)N2C(C(=O)O)=C(CSc3nnnn3C)CS[C@@H]21` [cefmetazole], the “stability of the medium” value in data set [3] (medium prepared with cefmetazole at 2.5 mg/l) is “at least 5 months”.
With `CO[C@@]1(NC(=O)CSC(F)F)C(=O)N2C(C(=O)O)=C(CSc3nnnn3CCO)CO[C@@H]21` [flomoxef], the “ability to conserve antibiotic activity on heating” value in data set [6] is given as “conserve its antibiotic activity”.
Consider `Cc1onc(-c2ccccc2)c1C(=O)N[C@@H]1C(=O)N2[C@@H]1SC(C)(C)[C@@H]2C(=O)O` [oxacillin], for which the “colony growth, MRhet” value in data set [1] (setting [8]) is given as “−”. The “colony growth, AR4295 MetiS” value in data set [2] (setting [8]) is given as “−”. Further, in data set [5] (setting [8]), the “colony growth, Z252” value was “−”.
